SMILES strings stand for the structures.

Data set [1] relates to PCLSs prepared from bleomycin-challenged mouse lungs. As to the kind of experiment: Col1a1 expression in PCLSs from bleomycin-challenged mouse lungs. As to conditions: for inhibition of collagen mRNA expression: acutely injured mouse lungs, 3 days, PLN-74809 200 nM, GSK3008348 1000 nM, CWHM-12 1000 nM (Fig. 2B); for IC50: Mus musculus, 72 h, 3 days of treatment, extrapolation from dose-response curve of combined experiments (Fig. S4), read-out: minimum concentration required to reduce Col1a1 mRNA levels by 50%; for effect on Col1a1 gene expression: chronic bleomycin-challenged mouse lungs, 7 days of treatment, nintedanib and pirfenidone at approximate clinical Cmax (Fig. 6C); for concentration for 50% reduction in collagen gene expression relative to concentration approximating Cmax: dose titrations in PCLSs from bleomycin-challenged mouse lungs. Format: cell-based. The text has this: (§1) PCLSs were generated from explanted lung tissue from patients with IPF and cultured as previously described. Mouse PCLSs were generated and cultured as previously described. Messenger ribonucleic acid (mRNA) levels in lysates prepared from snap-frozen tissue slices were quantified via NanoString PlexSet reagents and nCounter SPRINT Profiler (NanoString; Seattle, WA, USA; Additional file 1: Table S2) or TaqMan primers/probes on a Bio-Rad CFX96 thermocycler (Bio-Rad; Hercules, CA, USA; Additional file 1: Table S3).
Mouse PCLSs were generated and cultured based on previously reported methods (E13). Briefly, mice were challenged with bleomycin (Hospira; Lake Forest, IL, USA or Teva; Toronto, ON, Canada), either acutely with a single dose (3 U/kg or 4 U/kg) or chronically with multiple doses (3 U/kg bleomycin followed by four 1 U/kg challenges at 2-week intervals). Fourteen days after the final bleomycin challenge, lungs were harvested and 200 μm-thick slices were cut using a Compresstome VF-300-0Z (Precisionary Instruments).
(§2) Slices from each individual core (human) or mouse were distributed among the treatment groups to control for variability in the fibrotic injury within the tissue. […] After 3 or 7 days in culture, slices were washed and snap-frozen. Viability of sentinel slices on Days 0/1 and 3/7 was determined using WST-1 Cell Proliferation Reagent (Sigma 5015944001; St Louis, MO, USA).
(§3) For all figures (except Fig. 2B, Fig. S2, and Fig. S4), snap-frozen tissue slices were incubated in one-third RLT buffer (Qiagen #79216; Venlo, Netherlands) supplemented with 2 mg/ml proteinase K (Sigma-Aldrich #3115887001; St Louis, MO, USA) at 55 °C for 2 h 45 min, with periodic vortexing to generate ribonucleic acid (RNA)-compatible tissue lysate. This lysate was incubated overnight with probes from a custom fibrosis gene panel and NanoString PlexSet reagents (Table S2). The following day, samples were analyzed on a NanoString nCounter SPRINT Profiler (NanoString; Seattle, WA, USA). Messenger RNA (mRNA) counts were normalized to housekeeping genes (GUSB, HPRT1, RPLP0, and/or POLR1B) and total mRNA counts, relative to vehicle-treated control from the same experiment, are reported.
For Figs. 2B, S2, and S4, RNA purification and qPCR were performed by Transcriptic, Inc. (Menlo Park, CA, USA) using a proprietary automated protocol. Briefly, RNA was purified on a KingFisher Flex system (Thermo Fisher) and qPCR was performed on a Bio-Rad CFX96 (Bio-Rad; Hercules, CA, USA) with TaqMan primers/probes (Thermo Fisher) listed in Table S3. Ct values were normalized to housekeeping genes (Rn18sRn45s and Hprt) and reported as ddCT and fold change versus the vehicle-treated samples.

The next data set has as its target T1, human integrin αvβ8 (Homo sapiens, UniProt P06756+P26012).
T1 construct: purchased R&D Systems 4135-AV
Description: Integrin ligand-binding assay, αvβ8 (LAP ligand). The procedure: (§4) Integrin ligand-binding assays were performed similar to that previously described.
(§5) Microplates were coated with recombinant human integrins dissolved in PBS (2 µg/ml, overnight at room temperature). Following removal of the coating solution, plates were washed with PBS. Plates were blocked with 200 µL/well of blocking buffer (2% bovine serum albumin [BSA] in PBS) at 37 °C for 1 h. […] Plates were incubated for 2 h at 25 °C, washed, and incubated for 1 h with biotin-labeled anti-fibronectin or anti-LAP antibodies (for αvβ1 or αvβ6/αvβ8, respectively).

The target in data set [2] is T2, αvβ6-induced TGF-β activation (Homo sapiens, UniProt P06756+P18564).
T2 construct: expressed in transfected cells; host or cells: SW480 cells stably transfected with β6 (SW-β6), co-cultured with MLEC reporter cells
Description: TGF-β co-culture assay, SW-β6 cells with MLEC luciferase reporter cells. In kind it is cell-based. As to conditions: integrin αvβ6. The procedure: (§6) SW-β6 cells and MLECs or CHO-αv cells and MLECs were cultured in 96-well plates with test compounds or antibodies for 20 h at 37 °C in a 5% CO2 incubator. […] Measurement of MLEC luciferase production resulting from αvβ6- or αvβ1-mediated TGF-β activation was performed using the Bright-Glo Luciferase Assay System (Promega; Madison, WI, USA) according to manufacturer’s instruction. Luminescence was quantified by a Tecan Spark 10M plate reader. IC50 curves were generated using Dotmatics software suite with five-parameter logistic curve fitting. Geometric mean IC50 was calculated for each compound from multiple independent analyses.

The next data set has as its target T3, human integrin αvβ5 (Homo sapiens, UniProt P06756+P18084).
T3 construct: purchased R&D Systems 2528-AV
As to the kind of experiment: Integrin ligand-binding assay, αvβ5 (vitronectin ligand). As for the experimental part: as §4, §5

The target in another data set is T4, human integrin αvβ1 (Homo sapiens, UniProt P05556+P06756).
T4 construct: purchased ACROBiosystems or R&D Systems IT1-H52E1 or 6579-AVB
T4 sequence (P06756 31-992 limits assumed): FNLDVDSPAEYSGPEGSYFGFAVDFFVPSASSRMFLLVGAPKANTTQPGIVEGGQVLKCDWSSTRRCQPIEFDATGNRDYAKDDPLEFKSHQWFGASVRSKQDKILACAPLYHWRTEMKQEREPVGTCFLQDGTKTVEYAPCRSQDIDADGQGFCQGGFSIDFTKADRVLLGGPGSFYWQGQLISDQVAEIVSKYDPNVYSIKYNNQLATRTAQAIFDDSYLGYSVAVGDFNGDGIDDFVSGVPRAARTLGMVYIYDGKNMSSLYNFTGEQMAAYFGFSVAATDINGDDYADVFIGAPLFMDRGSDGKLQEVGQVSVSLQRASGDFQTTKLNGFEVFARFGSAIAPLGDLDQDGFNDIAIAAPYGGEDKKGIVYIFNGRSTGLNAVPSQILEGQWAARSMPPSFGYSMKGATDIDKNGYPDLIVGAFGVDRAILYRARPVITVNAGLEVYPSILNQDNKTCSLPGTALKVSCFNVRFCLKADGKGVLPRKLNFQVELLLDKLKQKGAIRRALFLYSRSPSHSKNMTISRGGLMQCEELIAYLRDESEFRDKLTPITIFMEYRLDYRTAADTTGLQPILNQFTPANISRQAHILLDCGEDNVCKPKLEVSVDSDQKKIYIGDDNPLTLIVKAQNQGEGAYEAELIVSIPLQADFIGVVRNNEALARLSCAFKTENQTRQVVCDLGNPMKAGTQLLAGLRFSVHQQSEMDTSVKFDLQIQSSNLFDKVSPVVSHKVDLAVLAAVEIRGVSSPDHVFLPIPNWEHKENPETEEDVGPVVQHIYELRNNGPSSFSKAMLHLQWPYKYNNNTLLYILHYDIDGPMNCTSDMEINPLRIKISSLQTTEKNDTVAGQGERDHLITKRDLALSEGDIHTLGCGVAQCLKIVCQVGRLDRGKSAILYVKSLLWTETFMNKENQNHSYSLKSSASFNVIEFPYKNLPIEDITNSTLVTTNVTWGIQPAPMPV
T4 sequence (P05556 21-728 limits assumed): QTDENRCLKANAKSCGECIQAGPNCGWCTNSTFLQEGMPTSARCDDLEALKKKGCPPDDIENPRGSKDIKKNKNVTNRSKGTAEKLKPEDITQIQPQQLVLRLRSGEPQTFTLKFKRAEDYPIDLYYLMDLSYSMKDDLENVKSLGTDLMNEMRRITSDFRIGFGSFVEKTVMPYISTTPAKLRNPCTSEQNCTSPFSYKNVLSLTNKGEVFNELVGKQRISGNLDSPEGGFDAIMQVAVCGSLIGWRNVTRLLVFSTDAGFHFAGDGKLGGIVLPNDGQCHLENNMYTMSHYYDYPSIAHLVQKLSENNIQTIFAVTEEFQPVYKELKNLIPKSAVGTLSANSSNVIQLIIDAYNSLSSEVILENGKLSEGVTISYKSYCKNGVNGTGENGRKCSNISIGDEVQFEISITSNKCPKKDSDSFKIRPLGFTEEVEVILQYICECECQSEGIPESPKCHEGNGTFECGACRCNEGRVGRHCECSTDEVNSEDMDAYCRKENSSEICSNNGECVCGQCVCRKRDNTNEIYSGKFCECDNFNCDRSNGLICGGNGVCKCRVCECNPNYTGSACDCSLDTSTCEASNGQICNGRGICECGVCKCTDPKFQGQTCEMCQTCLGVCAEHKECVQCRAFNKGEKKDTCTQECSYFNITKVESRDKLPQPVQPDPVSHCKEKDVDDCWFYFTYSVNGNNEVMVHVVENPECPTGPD
As to the kind of experiment: Integrin ligand-binding assay, αvβ1 (fibronectin ligand). As for the experimental part:
as §4, §5

The next data set has as its target T5, human integrin αvβ6 (Homo sapiens, UniProt P06756+P18564).
T5 construct: purchased ACROBiosystems or R&D Systems IT6-H52E1 or 3817-AV
As to the kind of experiment: Integrin ligand-binding assay, αvβ6 (LAP ligand). The procedure:
as §4, §5

Data set [3] has as its system αvβ1-induced TGF-β activation. As to the kind of experiment: TGF-β co-culture assay, CHO-αv cells with MLEC luciferase reporter cells. As to conditions: integrin αvβ1. Format: cell-based, human. The procedure: as §6
In a further data set the target is T6, human integrin αvβ3 (Homo sapiens, UniProt P05106+P06756).
T6 construct: purchased R&D Systems 3050-AV
T6 sequence (P06756 31-992 limits assumed): as the sequence (P06756 31-992 limits assumed) above
T6 sequence (P05106 27-718 limits assumed): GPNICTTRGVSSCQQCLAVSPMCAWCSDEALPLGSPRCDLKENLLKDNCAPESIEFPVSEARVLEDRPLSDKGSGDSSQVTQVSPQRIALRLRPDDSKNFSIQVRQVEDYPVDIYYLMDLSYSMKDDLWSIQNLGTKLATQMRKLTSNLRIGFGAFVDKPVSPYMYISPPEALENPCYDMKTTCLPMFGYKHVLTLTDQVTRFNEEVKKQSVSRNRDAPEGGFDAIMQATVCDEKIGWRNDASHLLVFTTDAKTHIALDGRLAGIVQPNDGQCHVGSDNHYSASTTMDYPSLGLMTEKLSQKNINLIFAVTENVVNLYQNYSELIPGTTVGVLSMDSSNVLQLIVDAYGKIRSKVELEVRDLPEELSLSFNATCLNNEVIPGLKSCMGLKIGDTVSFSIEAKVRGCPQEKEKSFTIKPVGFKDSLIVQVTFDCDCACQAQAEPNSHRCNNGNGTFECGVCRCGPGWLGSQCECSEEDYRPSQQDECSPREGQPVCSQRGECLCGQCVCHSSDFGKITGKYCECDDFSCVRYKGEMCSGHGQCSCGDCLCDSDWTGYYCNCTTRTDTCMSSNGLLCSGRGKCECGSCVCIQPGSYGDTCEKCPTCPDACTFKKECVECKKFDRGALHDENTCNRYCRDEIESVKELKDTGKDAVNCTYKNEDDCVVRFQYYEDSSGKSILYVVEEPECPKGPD
Description: Integrin ligand-binding assay, αvβ3 (vitronectin ligand). The procedure: as §4, §5

Details of data set [4]: method as in PMID 25504994. The settings on record: patients with IPF; read-out: approximate clinical maximum observed drug concentration (Cmax); cited from earlier work.
Data set [5] concerns PCLSs prepared from explanted lung tissue from patients with IPF. As to the kind of experiment: Fibrotic gene expression in PCLSs from IPF lung explants. In kind it is cell-based, human.
Description: as §1
Human PCLSs were generated from lung tissue explants from patients with IPF undergoing transplant surgery and cultured based on previously reported methods (E7-E12). Slices of tissue (400 µm) were cut using a Compresstome VF-300-0Z (Precisionary Instruments; Natick, MA, USA).
as §2, §3

Where [6] appears, read: 7 days, PLN-74809 200 nM, nintedanib 75 nM, pirfenidone 50 µM, vs DMSO (Fig. 6A).

T1 sequence (P06756 31-992 limits assumed): as the sequence (P06756 31-992 limits assumed) above
T1 sequence (P26012 43-684 limits assumed): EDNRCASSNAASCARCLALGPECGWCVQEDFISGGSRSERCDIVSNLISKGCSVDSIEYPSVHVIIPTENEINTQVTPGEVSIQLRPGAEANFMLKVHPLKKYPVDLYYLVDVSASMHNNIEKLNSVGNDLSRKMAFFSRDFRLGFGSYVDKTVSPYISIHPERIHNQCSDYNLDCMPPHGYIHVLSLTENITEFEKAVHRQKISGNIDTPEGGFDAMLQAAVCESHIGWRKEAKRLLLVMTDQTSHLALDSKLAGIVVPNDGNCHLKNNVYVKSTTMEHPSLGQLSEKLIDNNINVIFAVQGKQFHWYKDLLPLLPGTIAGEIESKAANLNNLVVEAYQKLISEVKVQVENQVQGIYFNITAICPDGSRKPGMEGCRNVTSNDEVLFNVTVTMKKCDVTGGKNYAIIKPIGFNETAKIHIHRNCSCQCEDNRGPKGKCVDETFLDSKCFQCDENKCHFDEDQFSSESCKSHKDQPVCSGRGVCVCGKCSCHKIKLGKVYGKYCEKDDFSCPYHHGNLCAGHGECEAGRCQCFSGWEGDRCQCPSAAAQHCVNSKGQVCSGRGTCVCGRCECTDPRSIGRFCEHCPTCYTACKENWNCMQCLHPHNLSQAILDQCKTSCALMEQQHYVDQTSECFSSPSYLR
T5 sequence (P06756 31-992 limits assumed): as the sequence (P06756 31-992 limits assumed) above
T5 sequence (P18564 22-707 limits assumed): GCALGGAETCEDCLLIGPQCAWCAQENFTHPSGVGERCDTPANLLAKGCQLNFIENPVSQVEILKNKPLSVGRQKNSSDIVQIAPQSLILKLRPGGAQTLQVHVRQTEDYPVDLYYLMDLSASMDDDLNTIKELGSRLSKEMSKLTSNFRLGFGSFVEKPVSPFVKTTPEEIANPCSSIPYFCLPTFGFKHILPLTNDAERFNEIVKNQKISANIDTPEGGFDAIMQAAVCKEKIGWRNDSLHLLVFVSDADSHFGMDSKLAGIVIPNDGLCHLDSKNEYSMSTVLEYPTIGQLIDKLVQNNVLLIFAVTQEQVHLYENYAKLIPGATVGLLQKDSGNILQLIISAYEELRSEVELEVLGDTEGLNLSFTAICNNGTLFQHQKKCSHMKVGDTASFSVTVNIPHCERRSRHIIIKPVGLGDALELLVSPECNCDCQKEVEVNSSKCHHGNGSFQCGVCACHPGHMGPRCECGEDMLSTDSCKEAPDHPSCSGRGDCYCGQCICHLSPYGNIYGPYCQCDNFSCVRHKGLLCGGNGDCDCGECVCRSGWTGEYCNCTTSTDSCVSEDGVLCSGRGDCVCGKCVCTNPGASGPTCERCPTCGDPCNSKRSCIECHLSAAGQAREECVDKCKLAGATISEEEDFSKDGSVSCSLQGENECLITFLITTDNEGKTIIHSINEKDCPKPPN
T3 sequence (P06756 31-992 limits assumed): as the sequence (P06756 31-992 limits assumed) above
T3 sequence (P18084 24-719 limits assumed): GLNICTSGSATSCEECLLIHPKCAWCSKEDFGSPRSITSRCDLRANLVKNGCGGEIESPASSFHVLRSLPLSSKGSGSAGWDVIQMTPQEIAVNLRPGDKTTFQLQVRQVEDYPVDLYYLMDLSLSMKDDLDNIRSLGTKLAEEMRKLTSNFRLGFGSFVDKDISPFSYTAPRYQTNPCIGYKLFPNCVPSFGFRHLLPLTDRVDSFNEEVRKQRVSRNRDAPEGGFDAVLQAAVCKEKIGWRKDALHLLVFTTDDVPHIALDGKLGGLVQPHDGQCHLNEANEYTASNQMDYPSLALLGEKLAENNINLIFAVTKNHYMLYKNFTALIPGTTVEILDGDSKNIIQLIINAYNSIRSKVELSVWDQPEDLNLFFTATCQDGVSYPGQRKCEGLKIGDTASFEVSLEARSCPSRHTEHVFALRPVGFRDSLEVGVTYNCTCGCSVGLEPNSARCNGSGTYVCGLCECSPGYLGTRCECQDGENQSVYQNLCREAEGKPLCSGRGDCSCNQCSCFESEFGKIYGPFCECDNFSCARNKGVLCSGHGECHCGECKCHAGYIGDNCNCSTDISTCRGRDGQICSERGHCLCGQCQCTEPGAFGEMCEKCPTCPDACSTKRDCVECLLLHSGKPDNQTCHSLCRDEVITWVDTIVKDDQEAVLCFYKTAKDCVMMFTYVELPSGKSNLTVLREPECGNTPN

In the case of `CC(C)(C)c1cc(Br)cc([C@H](CC(=O)O)NC(=O)CNC(=O)c2cc(O)cc(NC3=NCC(O)CN3)c2)c1` (stereo partly shown) [CWHM-12, reference compound], the “inhibition of collagen mRNA expression” value in [1] is given as “no additional reduction”. Besides, the IC50 on human integrin αvβ8 was determined as 7.3 nM; in data set [2], 318 nM; at human integrin αvβ5, 5.3 nM; at human integrin αvβ1, 1.3 nM; on human integrin αvβ6 it was 6.1 nM; in data set [3], 2 nM. Also, on human integrin αvβ3, the IC50 was 0.7 nM. The “Fold selectivity (vs αvβ1)” value on human integrin αvβ8 (ligand binding) was 5.6×; in [2] (TGF-β activation), 159×; on human integrin αvβ5 (ligand binding) it was 4.1×; at human integrin αvβ1 (ligand binding) it was 1×; at human integrin αvβ6 (ligand binding), 4.7×; in data set [3] (TGF-β activation) it was 1×. For the same compound, the “Fold selectivity (vs αvβ1)” value on human integrin αvβ3 (ligand binding) stood at 0.5×.

On to `Cc1ccc(=O)n(-c2ccccc2)c1` [pirfenidone], for which, in data set [1], the IC50 is 678000 nM, the “effect on Col1a1 gene expression” value is “did not significantly alter” and the “concentration for 50% reduction in collagen gene expression relative to concentration approximating Cmax” value is greater than 10 ×. Moreover, the Cmax in data set [4] was roughly 50 µM. In addition, in [5] (setting [6]), the “reduction of COL1A1 mRNA expression” value is “no effect”.

Regarding `Cc1cc(C)n(-c2cccc([C@H](CC(=O)O)CN3CC[C@@H](CCc4ccc5c(n4)NCCC5)C3)c2)n1` [GSK3008348, (S)-3-(3-(3,5-Dimethyl-1 H-pyrazol-1-yl)phenyl)-4-((R)-3-(2-(5,6,7,8-tetrahydro-1,8-naphthyridin-2-yl)ethyl)pyrrolidin-1-yl)butanoic acid], the “inhibition of collagen mRNA expression” value in data set [1] is “no additional reduction”. In data set [3], this compound came in with an IC50 of 17.4 nM.

Take `COC(=O)c1ccc2c(c1)NC(=O)/C2=C(\Nc1ccc(N(C)C(=O)CN2CCN(C)CC2)cc1)c1ccccc1` [nintedanib]: in data set [1], the IC50 was 897 nM, the “effect on Col1a1 gene expression” value is “did not significantly alter” and the “concentration for 50% reduction in collagen gene expression relative to concentration approximating Cmax” value is greater than 10 ×. Also, in data set [4], the Cmax is roughly 0.075 µM. In addition, the “reduction of COL1A1 mRNA expression” value in data set [5] (setting [6]) was “no effect”.

Consider `Cc1cccc(-c2[nH]ncc2-c2ccc(F)c(-c3cnn(CCO)c3)c2)n1` [Compound R-268712, reference compound], for which, in data set [5] (7-day incubation, Compound A 471 nM, 3G9 0.5 µg/ml, PLN-74809 1.82 µM, ALK5i R-268712 1 µM, vs vehicle (Fig. 1A)), the “reduction of COL1A1 mRNA expression” value was ~ 80%.

These data come from article PMC8524858, “Dual inhibition of αvβ6 and αvβ1 reduces fibrogenesis in lung tissue explants from patients with IPF” (Respiratory Research, 2021).
